From patent US4690920A, “Derivative of cephalosporanic acid and pharmaceutical composition comprising the same” (Kureha Kagaku Kogyo Kabushiki Kaisha, priority 1982, dated 1987) come the findings set out here.

For experiment [1], the system named is Escherichia coli IFO 12734. Put plainly: Anti-bacterial activity, agar plate dilution method (MIC), Escherichia coli. Format: cell-based. The note with it: Mueller-Hinton agar, 18 to 24 hours, 37° C. As to the method: (§1) 3-1: The minimum growth-inhibiting concentration (MIC) of each of the compounds represented by the formula (I) was measured according to the standard procedures of Japan Society of Chemotherapy against each of the following bacterial species:
Escherichia coli, IFO 12734 and
(§2) Anti-bacterial activity of each of the compounds produced in Examples 1 to 6 was measured according to the standard procedures of Japan Society of Chemotherapy in agar plate dilution method as follows:
(§3) As a test bacterial species, Escherichia coli IFO 12734 and Staphylococcus aureus IAM 1011, and each strain was inoculated into Mueller-Hinton's culture medium for 18 to 48 hours at 37° C., and while using the thus cultured bacteria, each of the test bacterial liquid containing 10^6 cells in one ml was prepared.
(§4) Separately, after preparing each series of diluted aqueous solutions of each of the compounds produced in Examples 1 to 6, respectively, each of them was mixed in amount of 1/9 time by weight with the Mueller-Hinton's culture medium and each flat agar culture plate was prepared by using the thus formed mixture.

In experiment [2] the test system is Escherichia coli IFO 12734. Put plainly: Effectiveness in treating experimental infectious disease, Escherichia coli. Format: in vivo, mice (ddY-SPF) infected with Escherichia coli. The note with it: of 20 mice; 1.4×10^8 cells i.p.; 500 mg/kg orally two times, just after and after 4 hours; all untreated died on second day. As to the method:
(§5) Each of 20 mice of a group was infected by intraperitoneal inoculation of Escherichia coli IFO 12734 or Staphylococcus aureus IAM 1011, and just after or after 4 hours of the inoculation, each of the compounds represented by the formula (I) was orally administered to the inoculated mouse at a dose rate of 500 mg/kg body weight.
(§6) Cells in number of 1.4×10^8 of Escherichia coli IFO 12734 were intraperitoneally inoculated to each of 40 ddY-SPF mice, and each of 20 mice of the 40 mice was administered two times just after and after 4 hours of the inoculation with each 500 mg of the compound produced in Example 4 per kg of body weight orally, and the other 20 mice were kept untreated.

The subject of experiment [3] is A species of Lactobacillus. Put plainly: Effect on the intestinal bacterial colonies: number of a species of Lactobacillus in feces. It counts as in vivo, Lactobacillus (feces of female ICR mice). The settings on record: oral, 500 mg/kg/day for 2 days; feces one day after administration; before administration 9.0. As to the method: (§7) After collecting the feces of a group of mice, each of the compounds represented by the formula (I) was orally administered to each of the group for 2 continued days at a daily dose rate of 500 mg per kg body weight, and the feces were again collected one day after the administration. Each portion of the thus collected, two kinds of the feces was cultured at 25° C. or 37° C. in a variety of culture media for one to five days to see the state of growth of the following bacteria which are present habitually in the intestine of the mouse: Escherichia coli, Pseudomonas aeruginosa, a streptococcus bacterial species, a lactobacillis bacteria, Lactobacillus bifidus and a bacterioides bacteria.
(§8) Each of the compounds, respectively produced in Examples 1 to 6 was orally administered for two continued days at a daily dosage of 500 mg/kg body weight to each of five female ICR mice of a group after 6 weeks of birth.
(§9) Each of the two fecal specimens respectively collected before and after one day of the administration was diluted with 100 times by weight of an anaerobic diluent (a phosphoric buffer solution) and was ground in a mortar, and 0.1 ml of the ground material was smeared on each of the following culture media for the following bacteria and the thus inoculated culture media were incubated under the following conditions. Thereafter, the number of the following bacteria was determined on each culture medium.
a species of LBS agar 37° C., for 5 days, […]

In the next experiment the test system is Pseudomonas aeruginosa. Description: Effect on the intestinal bacterial colonies: number of Pseudomonas aeruginosa in feces. Format: in vivo, Pseudomonas aeruginosa (feces of female ICR mice). The note with it: oral, 500 mg/kg/day for 2 days; feces one day after administration; before administration <3.0. As to the method:
as §7, §8, §9
NAC agar 37° C., for 1 day, […]

In experiment [4] the test system is Staphylococcus aureus IAM 1011. Put plainly: Anti-bacterial activity, agar plate dilution method (MIC), Staphylococcus aureus. Format: cell-based. The note with it: Mueller-Hinton agar, 18 to 24 hours, 37° C. The protocol: as §1
Staphylococcus aureus, IAM 1011
as §2, §3, §4

Another experiment relates to Lactobacillus bifidus. Description: Effect on the intestinal bacterial colonies: number of Lactobacillus bifidus in feces. It counts as in vivo, Lactobacillus bifidus (feces of female ICR mice). The note with it: oral, 500 mg/kg/day for 2 days; feces one day after administration; before administration 8.0. As to the method:
as §7, §8, §9
BS agar 37° C., for 5 days, […]

Experiment [5] concerns A species of Streptococcus. Description: Effect on the intestinal bacterial colonies: number of a species of Streptococcus in feces. It counts as in vivo, Streptococcus (feces of female ICR mice). The settings on record: oral, 500 mg/kg/day for 2 days; feces one day after administration; before administration 6.4. The protocol:
as §7, §8, §9
a species of TATAC agar 37° C., for 1 day, […]

The test system of experiment [6] is Staphylococcus aureus IAM 1011. Description: Effectiveness in treating experimental infectious disease, Staphylococcus aureus. It counts as in vivo, mice (ddY-SPF) infected with Staphylococcus aureus. The settings on record: of 20 mice; 2.3×10^8 cells i.p.; 500 mg/kg orally two times; all untreated died on second day. As to the method:
as §5, §6
Quite the same experiments as in (10-1) except for intraperitoneously inoculating Staphylococcus aureus IAM 1011 in number of 2.3×10^8instead of 1.4×10^8 cells of E. coli was carried out by administering two times with each 500 mg of the compound produced in Example 4. As a result, all the 20 mice inoculated and not administered died on the second day of inoculation, however, more than 70% of the inoculated and administered 20 mice were alive even on the 7th day of inoculation.

A further experiment relates to Escherichia coli. Put plainly: Effect on the intestinal bacterial colonies: number of Escherichia coli in feces. Format: in vivo, Escherichia coli (feces of female ICR mice). The settings on record: oral, 500 mg/kg/day for 2 days; feces one day after administration; before administration 7.0. The protocol: as §7, §8, §9
DHL agar 37° C., for 1 day, […]

Experiment [7] relates to A species of Bacterioides. Put plainly: Effect on the intestinal bacterial colonies: number of a species of Bacterioides in feces. It counts as in vivo, Bacteroides (feces of female ICR mice). The settings on record: oral, 500 mg/kg/day for 2 days; feces one day after administration; before administration 8.1. The protocol:
as §7, §8, §9
a species of NBGT agar 37° C., for 5 days,7 -Bacteroides anaer

Experiment [8] relates to Staphylococcus aureus IAM 1011. Put plainly: Model test for verifying the activation in living body: growth-inhibition circle with/without rat liver S-9 mix. Format: cell-based. The settings on record: 20 min at 37° C., then 18 hours at 37° C.; for Sign: diameter of growth-inhibiting circle as percentage of that due to compound of formula (II), with the addition of S-9 mix: with the addition of S-9 mix (rat liver homogenate). The protocol: On each flat culture plate prepared by adding 10^8 cells/ml of a preliminarily cultured Staphylococcus aureus IAM 1011 into 50 times by weight of Mueller-Hinton's agar culture medium, a penicillin cup of 8 mm in diameter was placed, and into each cup 0.1 ml of each of the compounds represented by the formula (I) or 0.1 ml of a cultured product of each of the compounds represented by the formula (I) together with a rat liver homogenate (containing a metabolism-activating enzyme, referred to as S-9 mix) was introduced. The diameter of each growth-inhibition circle formed around the cup after incubating the flat culture plate with the cup for 18 hours at 37° C. was measured, and the thus obtained value was compared to the value obtained by the same procedures except for using the compound represented by the formula (II), the starting compound instead of each of the compounds represented by the formula (I).
As a metabolism-activating enzyme, a rat liver homogenate (S-9, manufactured by Oriental Yeast Co.) was used in the following composition (referred to as S-9 mix, hereinafter):
After mixing 0.1 ml of a solution of the compound to be tested with 0.9 ml of S-9 mix or 0.9 ml of 0.1M phosphoric acid buffer solution, the mixture was subjected to shaking culture for 20 min at 37° C. to prepare a test reaction solution for use in the following experiment.
Staphylococcus aureus IAM 1011 was inoculated to Mueller-Hinton's culture medium and the inoculum was cultured for 18 hours at 37° C. and after adjusting the number of the bacterial cells to 10^8 /ml of the culture medium, 50 times by weight of the Mueller-Hinton's agar culture medium were added to the cultured medium to prepare flat culture plates.
After placing a penicillin-cup of 8 mm in diameter on each of the thus prepared flat culture plates, 0.1 ml of the above-mentioned test reaction solution was introduced into the penicillin-cup, and after leaving the system for 2 hours at 4° C., the system was incubated for 18 hour at 37° C., and the diameter of the growth-inhibition circle around the cup on the culture plate was determined.
The thus obtained diameter of the growth-inhibiting circle due to each of the compounds produced respectively in Examples 1 to 6 was compared to that due to the compound repesente by the formula (II), substituted cephalosporanic acid by percentage, and the following signs were respectively given to the respective compounds as follows: […]

For `COC(=O)CNC(=O)c1ccc(NC(=O)C2=C(CSc3nnnn3C)CSC3N2C(=O)C3(NC(=O)CSCC#N)OC)cc1` (stereo not drawn) [Example 4, N-(4-carbomethoxymethylcarbamoylphenyl)-{7-beta-cyanomethylthioacetamido-7-alpha-methoxy-3-[(1-methyl-1H-tetrazol-5-yl)thio]methyl-3-cepheme-4-carboxylic}amide], the “Minimum concentration of inhibiting growth of Escherichia coli (MIC)” value in experiment [1] is no less than 100 microgram/ml. Also, the “mice alive on the 7th day of inoculation” value in [2] was “more than 16 mice”. For the same compound, the “Log10 value of the number of bacterial cells/g of feces, a species of Lactobacillus” value in experiment [3] is on record as 9.3 Log10 cells/g of feces. Moreover, in the experiment on Pseudomonas aeruginosa, the “Log10 value of the number of bacterial cells/g of feces, Pseudomonas aeruginosa” value is given as < 3.0 Log10 cells/g of feces. In addition, in experiment [4], the “Minimum concentration of inhibiting growth of Staphylococcus aureus (MIC)” value was no less than 100 microgram/ml. Besides, in the experiment with Lactobacillus bifidus, the “Log10 value of the number of bacterial cells/g of feces, Lactobacillus bifidus” value is 7.9 Log10 cells/g of feces. For the same compound, the “Log10 value of the number of bacterial cells/g of feces, a species of Streptococcus” value in experiment [5] is 5.9 Log10 cells/g of feces. In addition, in experiment [6], the “inoculated and administered mice alive on the 7th day of inoculation” value is “more than 70%”. In the experiment on Escherichia coli, the “Log10 value of the number of bacterial cells/g of feces, Escherichia coli” value is listed as 7.0 Log10 cells/g of feces. Further, in [7], the “Log10 value of the number of bacterial cells/g of feces, a species of Bacterioides” value is 8.3 Log10 cells/g of feces. In [8], the “Sign: diameter of growth-inhibiting circle as percentage of that due to compound of formula (II), with the addition of S-9 mix” value is “+ (1 to 33)” and the “Sign: diameter of growth-inhibiting circle as percentage of that due to compound of formula (II), without adding S-9 mix” value is “- (0)”.

With `COC1(NC(=O)CSCC#N)C(=O)N2C(C(=O)Nc3ccc(C)cc3)=C(CSc3nnnn3C)CSC21` (stereo not drawn) [Example 6, N-(4-methylphenyl)-{7-beta-cyanomethylthioacetamido-7-alpha-methoxy-3-[(1-methyl-1H-tetrazol-5-yl)thio]methyl-3-cepheme-4-carboxylic}amide], the “Minimum concentration of inhibiting growth of Escherichia coli (MIC)” value in experiment [1] is no less than 100 microgram/ml. The “Log10 value of the number of bacterial cells/g of feces, a species of Lactobacillus” value in experiment [3] was 9.2 Log10 cells/g of feces. In addition, in the experiment on Pseudomonas aeruginosa, the “Log10 value of the number of bacterial cells/g of feces, Pseudomonas aeruginosa” value is on record as < 3.0 Log10 cells/g of feces. The “Minimum concentration of inhibiting growth of Staphylococcus aureus (MIC)” value in experiment [4] is reported as no less than 100 microgram/ml. In addition, in the experiment with Lactobacillus bifidus, the “Log10 value of the number of bacterial cells/g of feces, Lactobacillus bifidus” value is recorded as 8.0 Log10 cells/g of feces. The “Log10 value of the number of bacterial cells/g of feces, a species of Streptococcus” value in [5] was 6.3 Log10 cells/g of feces. In addition, the “Log10 value of the number of bacterial cells/g of feces, Escherichia coli” value in the experiment on Escherichia coli is recorded as 6.9 Log10 cells/g of feces. Further, the “Log10 value of the number of bacterial cells/g of feces, a species of Bacterioides” value in experiment [7] was 8.0 Log10 cells/g of feces. Moreover, in experiment [8], the “Sign: diameter of growth-inhibiting circle as percentage of that due to compound of formula (II), with the addition of S-9 mix” value is on record as “+ (1 to 33)” and the “Sign: diameter of growth-inhibiting circle as percentage of that due to compound of formula (II), without adding S-9 mix” value is listed as “- (0)”.
